Results as given in patent US20040072824A1, “Methods and compositions for the treatment of cancer” (priority 2001, published 2004).
Where a name gives a salt, the structure may show the parent alone. Read-outs that look alike come from different tables or passages of the source.

Legend:
[1] = tested on: K562, U937, Jurkat, T47-D, MCF7, BT20 and 184B5 cell lines; assay: Cytotoxicity in malignant and immortalized cell lines (manual counting, Alamar assay); format: cell-based; settings: all of the cell lines tested
Procedure: These four compounds were added at different concentrations to cultures of various malignant cell lines and normal cells. The cell lines used for these tests were the following:
All leukemic cell lines were grown and used in logarithmic phase. After one day of treatment, the cells were isolated, counted and diluted in a regular growth medium to provide the cell density of about 75×10^3 cells/ml for reading on plates at 48 hours after the treatment, and […] for reading at 144 hours after the treatment.
Several dilutions of each compound tested were added to the wells (12 wells per plate, TPP), and 1 ml of cells from the parent solution was added per well after a line had been completed. The dilutions were made using the culture medium, and following dilutions were tested: control, which contained no compound of this invention; 1:100; 1:1,000; 1:2,000; 1:5,000; and 1:10,000. The starting concentrations for these dilutions were: 50 mg/ml for compound A; 10 mg/ml for compound B; 25 mg/ml for compound C; and 5 mg/ml for compound D. The results were analyzed by manual counting and Alamar reduced assay.
The cells were grown on their respective propagation medium and seeded 24 hours before the compounds are added. The cells were trypsinized, and 50,000 cells/well and 10,000 cells/well were seeded in order to read the plates at 48 hours and 144 hours after being treated by the compounds, respectively.
On the day of the treatment, the medium was replaced by 10 ml each of series dilution of the compounds, consisting of: control, which contained no compound of this invention; 1:100 dilution; 1:1,000 dilution; 1:2,000 dilution; and 1:5,000 dilution. The starting concentrations for these dilutions were: 50 mg/ml for compound A; 10 mg/ml for compound B; 25 mg/ml for compound C; and 5 mg/ml for compound D. The dilution was made using the growth medium.
A tested compound is regarded as being active in cytotoxicity where the percentage of surviving cells after the treatment with the compound is less than 30%.

[2] = tested on: blastic cells from AML patients; assay: Inhibition of viability of fresh leukemic cells (trypan blue exclusion); format: cell-based, human; settings: day 3; for cytotoxicity at 10 µM / cytotoxicity at 1 µM: Homo sapiens
Procedure: Samples for AML 1 through 5, AML 1 being the least and AML 5 being the most differentiated, were obtained. […] Cells were incubated with or without […] anti-histamine derivatives. Polaramine was included as a negative control. Cell counts were assessed by trypan blue exclusion test at day 3 after the incubation. Morphological analysis was performed using Wright-Giemsa staining on cytocentrifuge preparations. The results were expressed as % inhibition of growth as compared to negative control.

[3] = tested on: MDA-MB-231 (breast cancer line); assay: Curative effects on palpable tumors, MDA-MB-231 cells in scid/scid mice; format: in vivo; settings: 2.5 mg/kg daily once tumors palpable
Procedure: In this series of experiments, effects of various compounds of the present invention on tumor development were tested using two protocols. The first protocol is directed to the testing of curative effects of these compounds in different cell lines. In this protocol, cancerous cells are inoculated to the animals, and the inoculated animals were left without any further treatment until the development of tumors. As soon as the tumors became palable (4 mm^3), the compounds of this invention were administered daily to the animals.

[4] = tested on: K562, U937, MDA-DB231, BT20 and MCF7 cell lines; assay: Cytotoxic effects in multi-well plate, 6 days, ATP level (CellTiter-Glo); settings: 2x10^-9 M to 2x10^-4 M
Procedure: In order to test the cytotoxic effects of various compounds, a test was developed in a multi-well plate. Two leukemic cell lines, namely K562 and U937, and three breast cancer cell lines, namely MDA-DB231, BT20 and MCF7 were used for this test.
The cells were seeded at low density and were left for 24 hours to recover and reach a new logarithmic phase of growth. Various concentrations of the compounds being tested, ranging from 2×10^−9 M to 2×10^−4 M, were added in triplicate. The mixture was incubated for 6 days, during which approximately 4 doublings of the cell population occurred, to allow the cells to reach subconfluence.
The viability of the cultured cells after the treatment by the compounds was determined by quantifying the level of ATP since the level of ATP is directly proportional to the number of viable cells present in the culture. The ATP level was quantified by using CellTiter-Glo™ (Promega) luminescent test for cell viability.

[5] = 72 h, patient ID 14, FAB AML5, 10^-5 M, read-out: In Vitro Percent Inhibition of Viability

Structure (SMILES): CN(C)CC[C@@H](c1ccc(Cl)cc1)c1ccccn1 [D, dexchlorpheniramine maleate]
- cytotoxic activity [1]: little or no cytotoxic activity
- cytotoxicity at 10 µM [2, 5]: 9%

Structure (SMILES): OCCN1CCN(CCCN2c3ccccc3Sc3ccc(Cl)cc32)CC1 [S64, perphenazine]
- cytotoxicity at 10 µM ([2]; 72 h, MEAN over AML patients, 10^-5 M, read-out: In Vitro Percent Inhibition of Viability, MEAN): 36%
- cytotoxicity at 1 µM ([2]; 72 h, MEAN over AML patients, 10^-6 M, read-out: In Vitro Percent Inhibition of Viability, MEAN): 11%
- cytotoxicity at 10 µM ([2]; 72 h, patient ID 3, FAB AML2, 10^-5 M, read-out: In Vitro Percent Inhibition of Viability): 31%
- cytotoxicity at 1 µM ([2]; 72 h, patient ID 3, FAB AML2, 10^-6 M, read-out: In Vitro Percent Inhibition of Viability): 12%
- cytotoxicity at 10 µM ([2]; 72 h, patient ID 4, FAB AML2, 10^-5 M, read-out: In Vitro Percent Inhibition of Viability): 27%
- cytotoxicity at 1 µM ([2]; 72 h, patient ID 4, FAB AML2, 10^-6 M, read-out: In Vitro Percent Inhibition of Viability): 25%
- cytotoxicity at 10 µM ([2]; 72 h, patient ID 5, FAB AML2, 10^-5 M, read-out: In Vitro Percent Inhibition of Viability): 26%
- cytotoxicity at 1 µM ([2]; 72 h, patient ID 5, FAB AML2, 10^-6 M, read-out: In Vitro Percent Inhibition of Viability): 3%
- cytotoxicity at 10 µM ([2]; 72 h, patient ID 10, FAB AML4, 10^-5 M, read-out: In Vitro Percent Inhibition of Viability): 42%
- cytotoxicity at 1 µM ([2]; 72 h, patient ID 10, FAB AML4, 10^-6 M, read-out: In Vitro Percent Inhibition of Viability): 36%
- cytotoxicity at 10 µM ([2]; 72 h, patient ID 11, FAB AML5, 10^-5 M, read-out: In Vitro Percent Inhibition of Viability): 57%
- cytotoxicity at 1 µM ([2]; 72 h, patient ID 11, FAB AML5, 10^-6 M, read-out: In Vitro Percent Inhibition of Viability): 7%
- cytotoxicity at 10 µM ([2]; 72 h, patient ID 12, FAB AML5, 10^-5 M, read-out: In Vitro Percent Inhibition of Viability): 54%
- cytotoxicity at 10 µM ([2]; 72 h, patient ID 13, FAB AML5, 10^-5 M, read-out: In Vitro Percent Inhibition of Viability): 47%
- cytotoxicity at 1 µM ([2]; 72 h, patient ID 13, FAB AML5, 10^-6 M, read-out: In Vitro Percent Inhibition of Viability): 0%
- cytotoxicity at 10 µM [2, 5]: 23%
- cytotoxicity at 1 µM ([2]; 72 h, patient ID 14, FAB AML5, 10^-6 M, read-out: In Vitro Percent Inhibition of Viability): 18%
- cytotoxicity at 10 µM ([2]; 72 h, patient ID 15, FAB AML5, 10^-5 M, read-out: In Vitro Percent Inhibition of Viability): 17%
- cytotoxicity at 1 µM ([2]; 72 h, patient ID 15, FAB AML5, 10^-6 M, read-out: In Vitro Percent Inhibition of Viability): 8%
- cytotoxicity at 10 µM ([2]; AML1, 72 h, patient ID 1, FAB AML1, 10^-5 M, read-out: In Vitro Percent Inhibition of Viability): 17%
- cytotoxicity at 1 µM ([2]; AML1, 72 h, patient ID 1, FAB AML1, 10^-6 M, read-out: In Vitro Percent Inhibition of Viability): 8%
- cytotoxicity at 10 µM ([2]; AML1, 72 h, patient ID 2, FAB AML1, 10^-5 M, read-out: In Vitro Percent Inhibition of Viability): 32%
- cytotoxicity at 1 µM ([2]; AML1, 72 h, patient ID 2, FAB AML1, 10^-6 M, read-out: In Vitro Percent Inhibition of Viability): 0%
- cytotoxicity at 10 µM ([2]; AML3, 72 h, patient ID 6, FAB AML3, 10^-5 M, read-out: In Vitro Percent Inhibition of Viability): 35%
- cytotoxicity at 1 µM ([2]; AML3, 72 h, patient ID 6, FAB AML3, 10^-6 M, read-out: In Vitro Percent Inhibition of Viability): 24%
- cytotoxicity at 10 µM ([2]; AML3, 72 h, patient ID 7, FAB AML3, 10^-5 M, read-out: In Vitro Percent Inhibition of Viability): 45%
- cytotoxicity at 1 µM ([2]; AML3, 72 h, patient ID 7, FAB AML3, 10^-6 M, read-out: In Vitro Percent Inhibition of Viability): 0%
- cytotoxicity at 10 µM ([2]; AML3, 72 h, patient ID 8, FAB AML3, 10^-5 M, read-out: In Vitro Percent Inhibition of Viability): 50%
- cytotoxicity at 1 µM ([2]; AML3, 72 h, patient ID 8, FAB AML3, 10^-6 M, read-out: In Vitro Percent Inhibition of Viability): 18%
- cytotoxicity at 10 µM ([2]; AML3, 72 h, patient ID 9, FAB AML3, 10^-5 M, read-out: In Vitro Percent Inhibition of Viability): 35%
- cytotoxicity at 1 µM ([2]; AML3, 72 h, patient ID 9, FAB AML3, 10^-6 M, read-out: In Vitro Percent Inhibition of Viability): 0%
- tumor volume [3]: regression of the tumor volume
- cytotoxic effect group [4]: I

Structure (SMILES): OCCN1CCN(CC/C=C2/c3ccccc3Sc3ccc(C(F)(F)F)cc32)CC1 [i41, flupentixol]
- In Vitro Percent Inhibition of Viability, MEAN ([2]; MEAN over AML patients, 10^-5 M): 50%
- In Vitro Percent Inhibition of Viability, MEAN ([2]; MEAN over AML patients, 10^-6 M): 24%
- In Vitro Percent Inhibition of Viability ([2]; patient ID 1, FAB AML1, 10^-5 M): 20%
- In Vitro Percent Inhibition of Viability ([2]; patient ID 1, FAB AML1, 10^-6 M): 25%
- In Vitro Percent Inhibition of Viability ([2]; patient ID 2, FAB AML1, 10^-5 M): 30%
- In Vitro Percent Inhibition of Viability ([2]; patient ID 2, FAB AML1, 10^-6 M): 0%
- In Vitro Percent Inhibition of Viability ([2]; patient ID 3, FAB AML2, 10^-5 M): 68%
- In Vitro Percent Inhibition of Viability ([2]; patient ID 3, FAB AML2, 10^-6 M): 34%
- In Vitro Percent Inhibition of Viability ([2]; patient ID 4, FAB AML2, 10^-5 M): 38%
- In Vitro Percent Inhibition of Viability ([2]; patient ID 4, FAB AML2, 10^-6 M): 35%
- In Vitro Percent Inhibition of Viability ([2]; patient ID 5, FAB AML2, 10^-5 M): 40%
- In Vitro Percent Inhibition of Viability ([2]; patient ID 5, FAB AML2, 10^-6 M): 1%
- In Vitro Percent Inhibition of Viability ([2]; patient ID 6, FAB AML3, 10^-5 M): 85%
- In Vitro Percent Inhibition of Viability ([2]; patient ID 6, FAB AML3, 10^-6 M): 24%
- In Vitro Percent Inhibition of Viability ([2]; patient ID 7, FAB AML3, 10^-5 M): 50%
- In Vitro Percent Inhibition of Viability ([2]; patient ID 7, FAB AML3, 10^-6 M): 30%
- In Vitro Percent Inhibition of Viability ([2]; patient ID 8, FAB AML3, 10^-5 M): 46%
- In Vitro Percent Inhibition of Viability ([2]; patient ID 8, FAB AML3, 10^-6 M): 38%
- In Vitro Percent Inhibition of Viability ([2]; patient ID 9, FAB AML3, 10^-5 M): 97%
- In Vitro Percent Inhibition of Viability ([2]; patient ID 9, FAB AML3, 10^-6 M): 23%
- In Vitro Percent Inhibition of Viability ([2]; patient ID 10, FAB AML4, 10^-5 M): 55%
- In Vitro Percent Inhibition of Viability ([2]; patient ID 10, FAB AML4, 10^-6 M): 33%
- In Vitro Percent Inhibition of Viability ([2]; patient ID 11, FAB AML5, 10^-5 M): 75%
- In Vitro Percent Inhibition of Viability ([2]; patient ID 11, FAB AML5, 10^-6 M): 36%
- In Vitro Percent Inhibition of Viability ([2]; patient ID 12, FAB AML5, 10^-5 M): 55%
- In Vitro Percent Inhibition of Viability ([2]; patient ID 13, FAB AML5, 10^-5 M): 40%
- In Vitro Percent Inhibition of Viability ([2]; patient ID 13, FAB AML5, 10^-6 M): 24%
- In Vitro Percent Inhibition of Viability ([2]; patient ID 14, FAB AML5, 10^-5 M): 25%
- In Vitro Percent Inhibition of Viability ([2]; patient ID 14, FAB AML5, 10^-6 M): 23%
- In Vitro Percent Inhibition of Viability ([2]; patient ID 15, FAB AML5, 10^-5 M): 27%
- In Vitro Percent Inhibition of Viability ([2]; patient ID 15, FAB AML5, 10^-6 M): 16%
- cytotoxic effect group [4]: I
